For assay [1], the target named is T1, human NTPDase3 (Homo sapiens, UniProt O75355).
T1 sequence (O75355 1-529): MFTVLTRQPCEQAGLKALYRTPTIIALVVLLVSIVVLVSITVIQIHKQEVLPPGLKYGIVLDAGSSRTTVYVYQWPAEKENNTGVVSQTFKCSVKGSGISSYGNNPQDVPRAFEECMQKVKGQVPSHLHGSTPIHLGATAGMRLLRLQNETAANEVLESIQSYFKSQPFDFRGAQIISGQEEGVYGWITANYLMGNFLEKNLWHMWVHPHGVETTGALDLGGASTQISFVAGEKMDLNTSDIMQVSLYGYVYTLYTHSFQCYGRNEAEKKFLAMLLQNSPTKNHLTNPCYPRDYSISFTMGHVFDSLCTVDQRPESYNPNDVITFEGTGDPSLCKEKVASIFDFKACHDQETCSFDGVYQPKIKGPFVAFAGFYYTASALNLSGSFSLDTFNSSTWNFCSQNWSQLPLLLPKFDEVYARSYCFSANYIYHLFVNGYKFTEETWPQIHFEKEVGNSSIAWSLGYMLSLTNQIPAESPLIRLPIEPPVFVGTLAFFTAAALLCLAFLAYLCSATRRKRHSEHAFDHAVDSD
Put plainly: NTPDase inhibition assay by capillary electrophoresis (CE), NTPDase3. It is filed as biochemical. The conditions noted are these: ATP 320 μM; for inhibition at 1000 µM: 1 mM compound; for Ki: CE method, Km 75 μM, read-out: NTPDase3 Ki [μM] ± SEM. The method, then: The applied enzyme inhibition assay has been described (Iqbal J, Vollmayer P, Braun N, Zimmermann H, Müller C E. A capillary electrophoresis method for the characterization of ecto-nucleoside triphosphate diphosphohydrolases (NTPDases) and the analysis of inhibitors by in-capillary enzymatic microreaction. Purinergic Signalling 2005, 1, 349-358).
A. CE instrumentation: All experiments were carried out using a P/ACE MDQ capillary electrophoresis system (Beckman Instruments, Fullerton, Calif., USA) equipped with a UV detection system coupled with a diode-array detector (DAD). Data collection and peak area analysis were performed by the P/ACE MDQ software 32 KARAT obtained from Beckman Coulter. The capillary temperature was kept constant at 25° C. The temperature of the sample storing unit was also adjusted to 25° C. The electrophoretic separations were carried out using an eCAP polyacrylamide-coated fused-silica capillary [(30 cm (20 cm effective length)×50 μm internal diameter (I.D.)×360 μm outside diameter (O.D.), obtained from CS-Chromatographie (Langerwehe, Germany)]. The separation was performed using an applied current of −60 μA and a data acquisition rate of 8 Hz. Analytes were detected using direct UV absorbance at 210 nm. The capillary was conditioned by rinsing with water for 2 min and subsequently with buffer (phosphate 50 mM, pH 6.5) for 1 min. Sample injections were made at the cathodic side of the capillary.
B. NTPDase inhibition assay by capillary electrophoresis: Enzyme inhibition assays were carried out at 37° C. in a final volume of 100 μl. The reaction mixture contained 320 μM of ATP (substrate) in reaction buffer. The reaction buffer contained 140 mM NaCl, 5 mM KCl, 1 mM MgCl2, 2 mM CaCl2, and 10 mM Hepes, pH 7.4.
Different concentrations of inhibitors dissolved in DMSO or water (10 μl) were added and the reaction was initiated by the addition of 10 μl of the appropriately diluted recombinant or native human or rat NTPDase enzyme. […] The mixture (final volume 100 μl) was incubated for 15 min and terminated by heating at 99° C. for 4 min. Aliquots of the reaction mixture (50 μl) were then transferred to mini-CE vials and injected into the CE instrument under the conditions described above. 20 μM of UMP was used as internal standard. Inhibition of NTPDase was tested over a range of 6 to 8 concentrations of test compound spanning 3 orders of magnitude to determine K1 values. Each analysis was repeated two times (in triplicates) in two separate experiments. The Cheng-Prusoff equation was used to calculate the K1 values from the IC50 values, determined by the non-linear curve fitting program PRISM® 3.0 (GraphPad, San Diego, Calif., USA). In table 1K, values of selected compounds as inhibitors of human NTPDases are given.

The target of assay [2] is rP2Y6 (Rattus norvegicus, UniProt Q63371). The assay is described as follows: Inhibition of UDP binding at rP2Y6. The following applies: read-out: rP2Y6 % inhibition of UDP binding at 100 μM, n = 3, mean ± SEM.
rP2Y6, sequence (Q63371 whole entry): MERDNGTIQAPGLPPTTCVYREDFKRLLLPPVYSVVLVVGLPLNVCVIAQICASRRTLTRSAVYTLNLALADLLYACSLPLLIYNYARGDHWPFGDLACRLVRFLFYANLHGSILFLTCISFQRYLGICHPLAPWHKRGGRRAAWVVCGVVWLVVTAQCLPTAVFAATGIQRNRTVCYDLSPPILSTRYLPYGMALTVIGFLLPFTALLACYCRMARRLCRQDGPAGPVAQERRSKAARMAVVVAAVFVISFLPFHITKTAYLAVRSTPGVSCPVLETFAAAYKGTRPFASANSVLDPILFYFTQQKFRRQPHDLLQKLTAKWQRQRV
Assay [3] addresses hP2Y4 (Homo sapiens, UniProt P51582). Put plainly: Inhibition of UTP binding at hP2Y4. The conditions noted are these: read-out: hP2Y4 % inhibition of UTP binding at 100 μM, n = 3, mean ± SEM. The method, then:
In table 2 inhibition data of selected examples at human P2Y receptor subtypes were collected. It can be seen that no compound was identified that inhibited P2Y receptors at high concentrations of 100 μM and 10 μM, respectively.

hP2Y4, sequence (P51582 whole entry): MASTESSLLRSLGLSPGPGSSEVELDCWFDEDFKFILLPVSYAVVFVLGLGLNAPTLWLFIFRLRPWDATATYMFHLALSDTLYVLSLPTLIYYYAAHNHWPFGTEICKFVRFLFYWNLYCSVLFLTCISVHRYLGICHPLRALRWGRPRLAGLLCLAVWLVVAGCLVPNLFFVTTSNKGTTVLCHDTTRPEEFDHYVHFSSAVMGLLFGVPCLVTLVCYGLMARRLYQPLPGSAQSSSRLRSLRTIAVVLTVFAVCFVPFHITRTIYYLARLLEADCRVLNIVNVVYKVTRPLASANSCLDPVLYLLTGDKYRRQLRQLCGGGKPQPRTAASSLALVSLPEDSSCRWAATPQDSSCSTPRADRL

In general, inhibition refers to the drop in the measured response relative to a control, in per cent. The Ki is the equilibrium dissociation constant of an inhibitor or competing ligand from its target. Regarding `CCOP(=O)(Cc1ccc(NC(=O)CNC(=O)[C@H]2O[C@@H](n3ccc(=O)[nH]c3=O)C(O)C2O)cc1)OCC` (stereo in doubt) [Compound 2, 4-[2-((2S,3R,4S,5R)-5-(2,4-Dioxo-3,4-dihydropyrimidin-1(2H)-yl)-3,4-dihydroxy-tetrahydrofurane-2-carboxamido)ethaneamido]benzylphosphonic acid diethylester], in assay [1], the inhibition at 1000 µM was 0% and the Ki is over 200 µM. The inhibition at 100 µM in assay [2] is -10 ± 10%.

On to `CCOP(=O)(Cc1ccc(NC(=O)CCNC(=O)[C@H]2O[C@@H](n3ccc(=O)[nH]c3=O)C(O)C2O)cc1)OCC` (stereo in doubt) [Compound 3, 4-[3-((2S,3R,4S,5R)-5-(2,4-Dioxo-3,4-dihydropyrimidin-1(2H)-yl)-3,4-di-hydroxy-tetrahydrofurane-2-carboxamido)propaneamido]benzylphosphonic acid diethylester], for which, in assay [1], the inhibition at 1000 µM was found to be 40% and the Ki is over 200 µM. For the same compound, the inhibition at 100 µM in assay [3] stood at 14 ± 6%. For the same compound, the inhibition at 100 µM in assay [2] amounted to 7 ± 7%.

The values above are taken from patent publication US20100204182A1, “ECTONUCLEOTIDASE INHIBITORS” (RHEINISCHE FRIEDRICH-WILHELMS-UNIVERSITAT BONN, priority 2006, published 2010).
